Assay results as given in US20210040134A1, “COMBINATIONS OF MACROLIDE COMPOUNDS AND IMMUNE CHECKPOINT INHIBITORS” (ISR IMMUNE SYSTEM REGULATION HOLDING AB (PUBL), priority 2018, published 2021).

What was measured:
[1] = system: peripheral blood mononuclear cells (PBMC); test: Marker expression on stimulated PBMC by flow cytometry; assay type: cell-based, human; settings: 24 h
Protocol: Human peripheral blood mononuclear cells (PBMCs) were purified from healthy donors with Ficoll-Paque density centrifugation. Cells were cultured in complete RPMI-1640 media (Invitrogen) supplemented with 25 mM HEPES, L-glutamine, Sodium pyruvate (Sigma), 10% fetal bovine serum, 100 μg/mL penicillin and 100 μg/mL streptomycin (Hyclone) for 24-72 hours in 37° C., 5% CO2 and stimulated with and increasing concentrations of compound 1 and 2. Cells were then washed in PBS and stained with monoclonal antibodies specific for cell surface markers (BD Pharmingen) and analysed with flow cytomtetry using a BD FACS Canto II flow cytometer. All samples were tested in duplicates.
Human peripheral blood mononuclear cells (PBMCs) were purified from healthy donors with Ficoll-Paque density centrifugation. Cells were cultured in complete RPMI-1640 medium (Invitrogen) supplemented with 25 mM HEPES, L-glutamine, Sodium pyruvate (Sigma), 10% fetal bovine serum, 100 μg/mL penicillin and 100 μg/mL streptomycin (Hyclone). […] The cells were removed from the plate, washed in PBS and analysed for expression of cell specific surface markers and MHC class I with flow cytomtery using monoclonal antibodies from BD Pharmingen and a FACS Canto II flow cytometer.

C57bl/6 mice = test: MHC class I expression on CD11b+ splenocytes of mice after i.v. injection; assay type: in vivo; settings: spleen removed 24 h later
Protocol: FIG. 15: % MHC class I high CD11 b+ cells in spleen of 3 individual C57bl/6 mice injected 24 h previously with indicated compound. MHC class I and CD11 b expression was measured by flow cytometry.
Study 14: Compound 1 or 2 was administered i.v. to C57bl/6 mice.

CC[C@H]1OC(=O)[C@H](C)[C@@H](O[C@H]2C[C@@H](N(C)C)[C@H](O)[C@@H](C)O2)[C@H](C)[C@@H](O)[C@](C)(O)C[C@@H](C)CN(C)[C@H](C)[C@@H](O)[C@]1(C)O [Compound 1]
activation marker CD69 on CD4+ T cells and B cells ([1]; 1 μM): upregulated | MHC class I molecule (HLA-ABC) on T- and B-cells [1]: upregulation | splenocyte cells with high MHC I expression (CD11b+) (C57bl/6 mice): induced an increase
